The source of these data is patent US20220249492A1, “ANTICANCER COMBINATION THERAPY” (Boehringer Ingelheim International GmbH, priority 2019, published 2022).

A word on the IC50: it is the concentration that inhibits the measured activity by half. A higher IC50 goes with lower potency.

For series [1], the target named is T1, protein-protein interaction between SOS1 and KRAS G12D (Homo sapiens, UniProt Q07889).
T1 construct: GST-TEV-SOS1 (564-1049) is purchased from Viva Biotech Ltd; purchased Viva Biotech Ltd. (GST-TEV-SOS1); Xtal BioStructures, Inc. (K-Ras G12D) Lot #X129-110 (K-Ras)
T1 sequence (Q07889 564-1049): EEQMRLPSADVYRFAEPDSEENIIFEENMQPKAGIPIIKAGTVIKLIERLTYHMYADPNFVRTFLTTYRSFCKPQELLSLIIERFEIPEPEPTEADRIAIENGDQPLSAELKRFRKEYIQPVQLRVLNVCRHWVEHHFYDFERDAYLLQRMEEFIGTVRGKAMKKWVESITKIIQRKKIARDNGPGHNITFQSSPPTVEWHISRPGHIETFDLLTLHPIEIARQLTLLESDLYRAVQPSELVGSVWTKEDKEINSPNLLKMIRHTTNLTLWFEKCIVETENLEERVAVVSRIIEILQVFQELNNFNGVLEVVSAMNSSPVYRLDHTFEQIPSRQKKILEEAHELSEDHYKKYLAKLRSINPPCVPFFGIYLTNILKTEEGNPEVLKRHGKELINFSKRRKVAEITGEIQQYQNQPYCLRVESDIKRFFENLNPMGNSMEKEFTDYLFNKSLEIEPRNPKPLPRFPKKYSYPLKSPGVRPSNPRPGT
The series can be described thus: KRAS::SOS1 AlphaScreen binding assay. The protocol:
KRAS::SOS1 AlphaScreen Binding Assay
Low IC50 values are indicative of high potency of the SOS1 inhibitors in this assay setting:
10 nM (final assay concentration) KRAS G12D, 10 μM (final assay concentration) GDP and 5 nM (final assay concentration) GST-SOS1 are mixed in assay buffer prior to use and kept at room temperature.
AlphaLISA Glutathione Acceptor Beads and AlphaScreen Streptavidin Donor Beads are mixed in assay buffer at a concentration of 10 μg/mL (final assay concentration) each prior to use and kept at room temperature.
Compounds are diluted to a final start concentration of 100 μM and are tested in duplicate. Assay-ready plates (ARPs) are generated using an Access Labcyte Workstation with a Labcyte Echo 550 or 555 accoustic dispenser. For compound a start concentration of 100 μM, 150 nL of compound solution is transferred per well in 11 concentrations in duplicate with serial 1:5 dilutions.
The assay is run using a fully automated robotic system in a darkened room below 100 Lux. 10 μL of KRAS::SOS1 GDP mix is added into columns 1-24 to the 150 nL of compound solution (final dilution in the assay 1:100, final DMSO concentration 1%).
After a 30 minute incubation time 5 μL of bead mix is added into columns 1-23. Plates are kept at room temperature in a darkened incubator. After a further 60 minute incubation, the signal is measured using a PerkinElmer Envision HTS Multilabel Reader using the AlphaScreen specifications from PerkinElmer. Each plate contains the following controls: • diluted DMSO+KRAS::SOS1 GDP mix+bead mix • diluted DMSO+KRAS::SOS1 GDP mix
IC50 values are calculated and analyzed using a 4 parametric logistic model.
(Alpha assays give light when donor and acceptor beads are brought close together.)

The subject of series [2] is ERK phosphorylation (pERK Thr202/Tyr204) in DLD-1 cells (KRAS G13D). The series can be described thus: ERK phosphorylation assay (AlphaLISA SureFire Ultra p-ERK1/2) in DLD-1 cells. The class given is cell-based. Particulars: Homo sapiens, 1 h compound incubation, EGF 50 ng/mL for 10 minutes. Here is the method: ERK Phosphorylation Assay
Low IC50 values are indicative of high potency of the SOS1 inhibitors in this assay setting.
ERK phosphorylation assays are performed using the following human cell lines:
DLD-1 (ATCC CCL-221): human colon cancer with a KRAS G13D mutation;
DLD-1 cells (ATCC CCL-221) are seeded at 50,000 cells per well in/60 μL of RPMI with 10% FBS, non-essential amino acids, pyruvate and glutamax in Greiner TC 384 plates. The cells are incubated for 1 h at room temperature and then incubated overnight in an incubator at 37° C. and 5% CO2 in a humidified atmosphere. 60 nL compound solution (10 mM DMSO stock solution) is then added using a Labcyte Echo 550 device. After a 1 h incubation in the aforementioned incubator, 3 μL Epidermal Growth Factor (EGF, final concentration 50 ng/mL) is added. […] After 20 minutes of incubation at room temperature with shaking, 6 μL of each lysate sample is transferred to a 384-well Proxiplate and analyzed for pERK (Thr202/Tyr204) with the AlphaLISA SureFire Ultra pERK1/2 (Thr202/Tyr204) Assay Kit. 3 μL Acceptor Mix and 3 μL Donor Mix are added under subdued light and incubated for 2 h at room temperature in the dark, before the signal is measured on a Perkin Elmer Envision plate reader using 384 AlphaScreen settings for Proxiplates. […]

A short description of series [3]: Metabolic (microsomal) stability assay, mouse (MLM). It counts as in vitro ADME. The following applies: mouse liver microsomes, 0.5 mg/mL protein, 1 μM test compound, 37° C.; predicted clearance as percent of liver blood flow. Here is the method: (§1) Metabolic (Microsomal) Stability Assay:
(§2) The metabolic degradation of the test compound is assayed at 37° C. with pooled liver microsomes (mouse (MLM), rat (RLM) or human (HLM)). The final incubation volume of 74 μL per time point contains TRIS buffer (pH 7.5; 0.1 M), magnesium chloride (6.5 mM), microsomal protein (0.5 mg/mL for mouse/rat, 1 mg/mL for human specimens) and the test compound at a final concentration of 1 μM. Following a short preincubation period at 37° C., the reactions are initiated by addition of 8 μL beta-nicotinamide adenine dinucleotide phosphate, reduced form (NADPH, 10 mM) and terminated by transferring an aliquot into solvent after different time points. Additionally, the NADPH-independent degradation is monitored in incubations without NADPH, terminated at the last time point by addition of acetonitrile. The quenched incubations are pelleted by centrifugation (1811 g, 5 min). An aliquot of the supernatant is assayed by LC-MS/MS for the amount of parent compound.
(§3) In vitro intrinsic clearance (CLint,in vitro) is calculated from the time course of the disappearance of the test drug during the microsomal incubation. […] For better across species comparison the predicted clearance is expressed as percent of the liver blood flow [% QH] in the individual species. […]

Series [4] is described as follows: Metabolic (microsomal) stability assay, rat (RLM). The class given is in vitro ADME. Particulars: rat liver microsomes, 0.5 mg/mL protein, 1 μM test compound, 37° C.; predicted clearance as percent of liver blood flow. Here is the method:
as §1, §2, §3

A short description of series [5]: Metabolic (microsomal) stability assay, human (HLM). The class given is in vitro ADME. Particulars: human liver microsomes, 1 mg/mL protein, 1 μM test compound, 37° C.; predicted clearance as percent of liver blood flow. The protocol: as §1, §2, §3
A further series has as its target T2, CYP3A4 (Homo sapiens, UniProt P08684).
T2 construct: from tissue; host or cells: human liver microsomes
Nature of the series: Time dependent inhibition of CYP3A4 assay (TDI 3A4). The class given is in vitro ADME. The following applies: human liver microsomes, 25 uM test compound; hydroxy-midazolam formation after 30 min preincubation relative to 0 min preincubation. Here is the method: Time dependent inhibition of CYP3A4 Assay (TDI 3A4):
The time dependent inhibition towards CYP3A4 is assayed in human liver microsomes (0.02 mg/mL) with midazolam (15 μM) as a substrate. The test compounds are preincubated in presence of NADPH with human liver microsomes (0.2 mg/mL) at a concentration of 25 uM for 0 min and 30 min. After preincubation, the incubate is diluted 1:10 and the substrate midazolam is added for the main incubation (15 min). The main incubation is quenched with acetonitrile and the formation of hydroxy-midazolam is quantified via LC/MS-MS. The formation of hydroxy-midazolam from the 30 min preincubation relative to the formation from the 0 min preincubation is used as a readout. Values of less than 100% mean that the substrate midazolam is metabolized to a lower extend upon 30 min preincubation compared to 0 min preincubation. In general low effects upon 30 min preincubation are desired (corresponding to values close to 100%)
A general note: Liver microsomes are a subcellular fraction often used to study metabolism.

Setting [6] is: KRAS::SOS1 AlphaScreen, KRAS G12D, IC50, tables 20 and 24.
Setting [7] is: KRAS G12D::SOS1 AlphaScreen, measured without EDTA unless marked with an asterisk.

T2 sequence (P08684 whole entry): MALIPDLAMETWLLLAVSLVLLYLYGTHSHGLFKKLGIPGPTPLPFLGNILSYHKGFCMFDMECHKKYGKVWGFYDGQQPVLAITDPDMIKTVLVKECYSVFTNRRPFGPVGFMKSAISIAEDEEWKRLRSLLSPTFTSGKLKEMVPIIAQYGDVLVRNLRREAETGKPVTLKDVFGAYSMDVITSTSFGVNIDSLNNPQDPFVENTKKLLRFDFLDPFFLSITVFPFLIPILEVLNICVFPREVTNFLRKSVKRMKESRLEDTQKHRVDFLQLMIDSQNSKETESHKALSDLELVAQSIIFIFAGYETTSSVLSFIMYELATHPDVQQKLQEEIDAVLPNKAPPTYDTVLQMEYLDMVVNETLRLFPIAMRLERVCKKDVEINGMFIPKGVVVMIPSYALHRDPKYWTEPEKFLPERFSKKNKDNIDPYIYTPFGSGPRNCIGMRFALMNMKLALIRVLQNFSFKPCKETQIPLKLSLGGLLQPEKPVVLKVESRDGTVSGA

Turning to `Cc1nc(N[C@H](C)c2cccc(C(F)(F)F)c2C)c2cn([C@H]3C[C@H](F)C3)c(=O)cc2n1` [I-45], the half-inhibitory concentration (IC50) in series [1] (setting [6]) is 11 nM; in series [2] it was 47 nM.

As for `C[C@@H](Nc1ncnc2cc(=O)n(C34CC(F)(C3)C4)cc12)c1cccc(C(C)(F)F)c1F` [I-78], in series [1] (setting [6]), the half-maximal inhibitory concentration (IC50) stood at 9 nM. Moreover, the “MLM [% QH]” value in series [3] is listed as less than 24 % QH. Besides, in series [4], the “RLM [% QH]” value is listed as less than 23 % QH. Further, in series [5], the “HLM [% QH]” value is reported as less than 24 % QH.

With `Cc1nc(N[C@H](C)c2cccc(C(F)(F)F)c2C)c2cn(C34CCN(CC3)CC4)c(=O)cc2n1` [I-128], the IC50 in series [1] (setting [7]) is 2 nM. In series [3], the “MLM [% QH]” value is less than 24 % QH. For the same compound, in series [4], the “RLM [% QH]” value is listed as less than 23 % QH. Besides, the “HLM [% QH]” value in series [5] is given as 29 % QH. Also, the “TDI 3A4 [%]” value on CYP3A4 is 98%.

In turn, `Cc1nc(N[C@H](C)c2cccc(C(C)(F)F)c2)c2cn(C3(C(F)(F)F)CCOC3)c(=O)cc2n1` (stereo partly drawn) [I-129] yielded an IC50 in series [1] (setting [7]) of 18 nM.

In turn, `Cc1c(=O)n(C2(C)CC2)cc2c(N[C@H](C)c3cccc(C(F)(F)F)c3)ncnc12` [I-173] came in with a concentration for half-maximal inhibition (IC50) in series [1] (setting [6]) of 18 nM. The “TDI 3A4 [%]” value on CYP3A4 came to 84%.

In turn, `C[C@@H](Nc1ncnc2c(C3CC3)c(=O)n(C3(C)CC3)cc12)c1cccc(C(F)F)c1F` [I-179] registered an IC50 in series [1] (setting [7]) of 11 nM.
